Measurements from PMC8238520, “Co-ordinated control of the Aurora B abscission checkpoint by PKCε complex assembly, midbody recruitment and retention” (Biochemical Journal, 2021).

Experiments:
Format in all cases: cell-based
[1] = system: GFP-PKCε M486A in HEK293T cells; test: Fluorescence recovery after photobleaching (FRAP); conditions: NaPP1 (4 μM) for 10 min; 37°C
Description: Live-cell fluorescence recovery after photobleaching (FRAP) experiments were performed using an inverted laser scanning confocal microscope (LSM 510, Carl Zeiss MicroImaging GmbH, Jena, Germany), with fully open pinhole, using a Plan-Apochromat oil-immersion objective (×63, NA 1.4). The microscope was encased inside an environmental polymethylmethacrylate case maintained at a constant temperature of 37°C, while the dishes containing the cells were maintained under a constant 5% CO2 flow. GFP-PKCε M486A cells were incubated with NaPP1 (4 μM) for 10 min. Each FRAP experiment comprised a sequence of 300 frames (128 × 128, pixel dwell time of 6.40 μs, pixel size 0.37 μm) including 10 pre-bleached frames. […] Recovery was monitored by capturing a further 290 scans after the photobleach event. Quantification was performed using the FRAP module included in the LSM software (Carl Zeiss) plotting the graphs to a best fit double exponential model I = I0 − I1e^−t/T^1 − I2e^−t/T^2 where I0 is the intensity before bleach, I1 and I2 are the mobile fractions and T1 and T2 the time constants. […]
(§1) I = I0 –I 1e-t/T1 –I 2e-t/T2 (see Methods), for GFP-PKC e M486A expressing HEK293T cells pretreated with NaPP1. Cells were bleached atthe plasma membrane (PM) or midbody(MB)and fluorescence recovery was monitored. […]

[2] = system: GFP-PKCε-C259A in HEK293T cells; test: Midbody recruitment of GFP-PKCε-C259A (C1B mutant), immunofluorescence; conditions: twenty cells with midbodies per condition across three experiments
Description: (§2) Cells were grown on 13 mm glass coverslips and simultaneously fixed and permeabilized with PHEM-TX buffer (60 mM PIPES (pH 6.8), 25 mM HEPES (pH7.4), 10 mM EGTA (pH 8), 4 mM MgSO4, 4% paraformaldehyde and 0.1% Triton X-100) for 20 min. Cells were then incubated in blocking buffer (3% BSA in PBS) and probed using the following primary antibodies: rabbit Aurora B pS227 (in house, 1 : 100), mouse α-tubulin (in house, 1 : 1000). Primary antibodies were detected using Alexa Fluor-conjugated secondary antibodies (Life Technologies) and were all used diluted in blocking buffer: donkey anti-rabbit Alexa Fluor 647 and goat anti-mouse Alexa Fluor 555. […]
(§3) Figure 2. […] (B) Quantitation of dividing cells with GFP-PKCε and GFP-PKCε-D532N accumulation at the midbody. […] (D) Quantitation of dividing cells with GFP-PKCε, GFP-PKCε-S346A-S368A, GFP-PKCε-D532N or GFP-PKCε-D532N-S346A-S368A accumulation at the midbody. […] (F) Quantitation of dividing cells with GFP-PKCε-D532N, GFP-PKCε-D532N-C183A, GFP-PKCε-D532N-C259A or GFP-PKCε-D532N-ΔC2 accumulation at the midbody. […] (G) Quantitation of multinucleate cells upon treatment with non-targeting siRNA (control) or PKCε siRNA, with expression of siRNA-resistant mouse GFP-PKCε, GFP-PKCε-D532N, GFP-PKCε-C183A, GFP-PKCε-C259A or GFP-PKCε-ΔC2. […] Two-hundred cells were counted per condition per experiment. […]

[3] = system: GFP-PKCε (WT) in HEK293T cells; test: Midbody recruitment of GFP-PKCε (WT), immunofluorescence; conditions: cells undergoing cytokinesis, twenty cells with midbodies per condition across three experiments
Description: as §2, §3

[4] = system: GFP-PKCε-C183A in HEK293T cells; test: Midbody recruitment of GFP-PKCε-C183A (C1A mutant), immunofluorescence; conditions: twenty cells with midbodies per condition across three experiments
Description: as §2, §3

[5] = system: GFP-PKCε-ΔC2 in HEK293T cells; test: Midbody recruitment of GFP-PKCε-ΔC2, immunofluorescence
Description: as §2, with “555. All coverslips were mounted using ProLong Gold Diamond with DAPI (Invitrogen). All the static images were acquired using an inverted laser scanning confocal microscope (Carl Zeiss LSM 780) equipped with a 40× Plan-APOCHROMAT DIC oil-immersion objective. Image analysis was carried out using the ZEN analysis software. The variation in expression precluded midbody/cytoplasmic ratio determination as a valid approach to scoring localisation.” for “555.”
as §1

[6] = system: GFP-PKCε-L223A-K224A-E227A in HEK293T cells; test: Midbody recruitment of GFP-PKCε-L223A-K224A-E227A (LKE > 3A), immunofluorescence; conditions: twenty cells with midbodies per condition across three experiments
Description: as §2, with “555. All coverslips were mounted using ProLong Gold Diamond with DAPI (Invitrogen). All the static images were acquired using an inverted laser scanning confocal microscope (Carl Zeiss LSM 780) equipped with a 40× Plan-APOCHROMAT DIC oil-immersion objective. Image analysis was carried out using the ZEN analysis software. The variation in expression precluded midbody/cytoplasmic ratio determination as a valid approach to scoring localisation.” for “555.”
Figure 3. […] (C) Quantitation of dividing cells with GFP-PKCε, GFP-PKCε-D532N, GFP-PKCε-D532N-L223A-K224A-E227A, GFP-PKCε-D532N-T228A or GFP-PKCε-D532N-S234A accumulation at the midbody. […]

CC(C)(C)n1nc(-c2cccc3ccccc23)c2c(N)ncnc21 [NaPP1]
fast component of FRAP recovery at the midbody compared with the plasma membrane recruited protein [1]: considerably slower

CCCCCCCCCC(=O)OC[C@H](CO)OC(=O)CCCCCCCCC [DiC10, sn-1,2-didecanoylglycerol]
cells displaying recruitment of C1B mutant to midbody on diC10 ([2]; 10 µM diC10, 3 min): 0%
midbody recruitment of WT PKCε on diC10 ([3]; 10 µM diC10, 3 min): recruited to the midbody region
cells displaying recruitment of C1A mutant to midbody on diC10 ([4]; 10 µM diC10, 3 min): 0%
midbody recruitment of PKCεΔC2 on diC10 ([5]; DiC10, data not shown): recruited
midbody recruitment of LKE > 3A mutant on diC10 ([6]; 10 µM diC10, 3 min): recruited to the midbody

CCCCCCCCCCCCCC(=O)O[C@@H]1[C@@H](C)[C@@]2(O)[C@@H](C=C(CO)C[C@]3(O)C(=O)C(C)=C[C@@H]23)[C@@H]2C(C)(C)[C@]12OC(C)=O [PMA, phorbol myristate acetate]
midbody recruitment of C1B mutant (C259A) on PMA ([2]; 1 µM PMA, 20 min): not recruited
midbody recruitment of WT PKCε on PMA ([3]; 1 µM PMA, 20 min): recruited to the midbody region
midbody accumulation of C1A mutant (C183A) on PMA ([4]; 1 µM PMA, 20 min): still promoted midbody accumulation
midbody recruitment of PKCεΔC2 on PMA ([5]; PMA for 20 minutes, 20 cells per condition across 3 experiments): recruited
midbody recruitment of LKE > 3A mutant on PMA ([6]; 1 µM PMA, 20 min): recruited to the midbody
